From ChEMBL document CHEMBL1133074, “2-Methyladenosine-Substituted 2',5'-oligoadenylates: conformations, 2-5A binding and catalytic activities with human ribonuclease L” (Bioorg Med Chem Lett, 2000)

Assays:
[1] = Ratio of quotient (binding IC50)/(activation EC50 for the poly (U) assay)
[2] = molecular target: T1, 2-5A-dependent ribonuclease (Homo sapiens, UniProt Q05823); experiment: Activation of purified recombinant human Ribonuclease L by the compound was measured as degradation of poly (U) 3'[32P]p5'C3'p
T1 sequence (Q05823 whole entry): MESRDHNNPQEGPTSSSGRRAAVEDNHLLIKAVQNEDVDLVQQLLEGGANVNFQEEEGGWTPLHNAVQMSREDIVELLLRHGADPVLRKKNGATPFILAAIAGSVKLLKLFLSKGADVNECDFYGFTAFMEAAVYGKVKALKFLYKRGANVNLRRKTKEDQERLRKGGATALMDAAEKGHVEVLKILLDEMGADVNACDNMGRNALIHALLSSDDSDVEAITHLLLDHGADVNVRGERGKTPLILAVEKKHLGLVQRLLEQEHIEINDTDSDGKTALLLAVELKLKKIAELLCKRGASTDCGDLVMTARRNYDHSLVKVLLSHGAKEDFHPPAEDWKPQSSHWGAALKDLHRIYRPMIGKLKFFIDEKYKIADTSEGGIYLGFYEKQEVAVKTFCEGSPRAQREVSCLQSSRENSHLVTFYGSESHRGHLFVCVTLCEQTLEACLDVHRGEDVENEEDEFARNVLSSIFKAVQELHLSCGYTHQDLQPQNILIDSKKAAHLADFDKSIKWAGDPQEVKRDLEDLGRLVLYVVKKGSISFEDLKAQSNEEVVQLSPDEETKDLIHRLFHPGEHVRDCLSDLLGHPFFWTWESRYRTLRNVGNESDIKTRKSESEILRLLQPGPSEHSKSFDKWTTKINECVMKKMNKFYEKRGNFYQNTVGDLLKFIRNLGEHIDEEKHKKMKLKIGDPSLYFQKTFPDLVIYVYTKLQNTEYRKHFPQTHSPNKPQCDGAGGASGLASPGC

[3] = (§1) Relative concentration required to cause 50% degradation of the poly (U) 3'[32P]p5'C3'p
[4] = (§2) Relative concentration required to displace 50% of the p(A2'p)3A3'[32p]p5'Cp
[5] = molecular target: T1, 2-5A-dependent ribonuclease; experiment: Activation of purified recombinant human Ribonuclease L by the compound was measured as degradation of [32P]-pC11U2C7
[6] = molecular target: T1, 2-5A-dependent ribonuclease; experiment: Compound was tested for its binding ability, by displacement of p(A2'p)3A3'[32p]p5'Cp from recombinant human ribonuclease L
[7] = (§3) Relative concentration required to cause 50% degradation of the [32P]-pC11U2C7
[8] = as §3; assay type: functional
[9] = as §2; assay type: functional
[10] = as §1; assay type: functional

Row | SMILES | Rn [1] | EC50 [2] [nM] | Crel [3] | Crel [4] | EC50 [5] [nM] | IC50 [6] [nM] | Crel [7] | Crel [8] | Crel [9] | Crel [10]
1 | Cc1nc(N)c2ncn([C@@H]3O[C@H](COP(=O)(O)O[C@@H]4[C@H](O)[C@@H](COP(=O)(O)O[C@@H]5[C@H](O)[C@@H](COP(=O)(O)OP(=O)(O)OP(=O)(O)O)O[C@H]5n5cnc6c(N)nc(C)nc65)O[C@H]4n4cnc5c(N)nc(C)nc54)[C@@H](O)[C@H]3O)c2n1 | 0.5 | 4.6 | 31 | 15 | 4 | 105 | 20 | – | – | –
2 | Cc1nc(N)c2ncn([C@@H]3O[C@H](COP(=O)(O)O[C@@H]4[C@H](O)[C@@H](COP(=O)(O)O[C@@H]5[C@H](O)[C@@H](COP(=O)(O)O)O[C@H]5n5cnc6c(N)ncnc65)O[C@H]4n4cnc5c(N)ncnc54)[C@@H](O)[C@H]3O)c2n1 | 0.4 | 0.13 | – | – | 0.2 | 2.6 | – | 1 | 0.4 | 0.9
3 | Cc1nc(N)c2ncn([C@@H]3O[C@H](COP(=O)(O)O[C@@H]4[C@H](O)[C@@H](COP(=O)(O)O[C@@H]5[C@H](O)[C@@H](COP(=O)(O)O)O[C@H]5n5cnc6c(N)nc(C)nc65)O[C@H]4n4cnc5c(N)nc(C)nc54)[C@@H](O)[C@H]3O)c2n1 | 1.4 | 16 | 107 | 146 | 30 | 1060 | 120 | – | – | –
4 | Cc1nc(N)c2ncn([C@@H]3O[C@H](COP(=O)(O)O)[C@@H](O)[C@H]3OP(=O)(O)OC[C@H]3O[C@@H](n4cnc5c(N)ncnc54)[C@H](OP(=O)(O)OC[C@H]4O[C@@H](n5cnc6c(N)ncnc65)[C@H](O)[C@@H]4O)[C@@H]3O)c2n1 | 1.4 | 0.84 | 6 | 8 | 0.7 | 57 | 2.7 | – | – | –
5 | Cc1nc(N)c2ncn([C@@H]3O[C@H](COP(=O)(O)O[C@@H]4[C@H](O)[C@@H](COP(=O)(O)O[C@@H]5[C@H](O)[C@@H](COP(=O)(O)OP(=O)(O)OP(=O)(O)O)O[C@H]5n5cnc6c(N)ncnc65)O[C@H]4n4cnc5c(N)ncnc54)[C@@H](O)[C@H]3O)c2n1 | 0.06 | 0.24 | 2 | 0.1 | 0.3 | 0.72 | 1.5 | – | – | –
6 | Nc1ncnc2c1ncn2[C@@H]1O[C@H](COP(=O)(O)O[C@@H]2[C@H](O)[C@@H](COP(=O)(O)O[C@@H]3[C@H](O)[C@@H](COP(=O)(O)O)O[C@H]3n3cnc4c(N)ncnc43)O[C@H]2n2cnc3c(N)ncnc32)[C@@H](O)[C@H]1O | 1 | – | 1 | 1 | – | – | 1 | – | – | –
7 | Cc1nc(N)c2ncn([C@@H]3O[C@H](COP(=O)(O)OP(=O)(O)OP(=O)(O)O)[C@@H](O)[C@H]3OP(=O)(O)OC[C@H]3O[C@@H](n4cnc5c(N)ncnc54)[C@H](OP(=O)(O)OC[C@H]4O[C@@H](n5cnc6c(N)ncnc65)[C@H](O)[C@@H]4O)[C@@H]3O)c2n1 | 0.7 | 0.68 | 5 | 3 | 0.8 | 24 | 4 | – | – | –
